Test results taken from patent publication US20070167408A1, “NOVEL ALKYL PHOSPHOLIPID DERIVATIVES WITH REDUCED CYTOTOXICITY AND USES THEREOF” (ZENTARIS GmbH, priority 2005, published 2007).
Values after ≈ are worked out from the molar mass of the structure shown.

Columns and labels:
[1] = test system: Plasmodium falciparum (strain K1); test: In vitro drug activity assay, protozoon C; type: cell-based; conditions: strain K1, 3[H]-hypoxanthine method
Description: (§1) In vitro activity of selected compounds of the invention against different protozoa was assessed as follows.
(§2) Plasmodium falciparum strain K1 and strain 3D7 parasites were cultured according to Trager W and Jensen J B (Science 1976, 193: 673-675). In vitro drug susceptibility assays with the test compounds were carried out according to Korsinczky M et al. (Antimicrobial agents and chemotherapy 2000, 44(8): 2100-2108) and Fivelman Q L et al. (Antimicrobial agents and chemotherapy 2004, 48(11): 4097-4102) using a ^3[H]-hypoxanthine radioisotope method. ED50 values were calculated with Msxlfit (IDBS).
(§3) The following protozoa were assessed: • A) Trypanosoma cruzi (Tulahuan-LACZ amstigotes in PEM, Lorente S O et al., Antimicrobial agents and chemotherapy 2004, 48(8): 2937-2950; Buckner et al., Infection and Immunity 1999, 67(1): 403-409; Buckner et al., Antimicrobial Agents and Chemotherapy 1996, 40(11): 2592-2597) • B) Trypanosoma brucei rhodesiense (strain STIB900, Lorente S O et al., Antimicrobial agents and chemotherapy 2004, 48(8): 2937-2950; Habtemariam S, BMC Pharmacology 2003, 3:6) • C) Plasmodium falciparum (strain K1, Korsinczky M et al., Antimicrobial agents and chemotherapy 2000, 44(8): 2100-2108; Thaitong S and Beale G H, Trans. R. Soc. Trop. Med. Hyg. 1981, 75: 271-273; Trager W and Jensen J B, Science 1976, 193: 673-675) • D) Plasmodium faiciparum (strain 3D7, Mu et al., PLoS Biology 2005, 3(10): e335)

[2] = test system: Trypanosoma cruzi (Tulahuan-LACZ amstigotes in PEM); test: In vitro drug activity assay, protozoon A; type: cell-based; conditions: amastigotes in murine peritoneal macrophages, 3 days
Description: as §1
Murine (CD1) peritoneal macrophages were harvested 24 hours after starch induction and dispensed into 96-well plates at a concentration of 4×10^5 mL. After 24 hours, the cells were infected with Trypanosoma cruzi Tulahuan LAC-Z amastigotes (grown and cultured according to Buckner et al., Infection and Immunity 1999, 67(1): 403-409). 24 hours later, the infected cells were exposed to the test compounds (compounds of the invention as well as known prior art compounds) for 3 days and 50 μL of 500 μM CPRG-1% Nonidet P-40 was added to each well. The plates were read after 2 to 5 hours at 570 nm (Buckner et al., Antimicrobial Agents and Chemotherapy 1996, 40(11): 2592-2597). ED50 values were calculated with Msxlfit (IDBS).
as §3

[3] = test system: Plasmodium faiciparum (strain 3D7); test: In vitro drug activity assay, protozoon D; type: cell-based, Plasmodium falciparum; conditions: strain 3D7, 3[H]-hypoxanthine method
Description: as §1, §2, §3

[4] = test system: Trypanosoma brucei rhodesiense (strain STIB900); test: In vitro drug activity assay, protozoon B; type: cell-based; conditions: bloodstream form trypomastigotes, 72 hours, Alamar Blue
Description: as §1
Trypanosoma brucei rhodesiense STIB900 bloodstream form trypomastigotes were maintained in HMI-18 medium (Hirumi H, Hirumi K, J Parasitol. 1989, 75(6):985-989) with 15% heat-inactivated fetal calf serum at 37° C., 5% CO2, humidified atmosphere. Trypomastigotes were washed and resuspended in fresh medium at a concentration of 2×10^5 mL. Test compounds were given to the trypomastigotes and plates were incubated for 72 hours at 37° C., 5% CO2, humidified atmosphere. At 72 hours the plates were assessed microscopically before Alamar Blue was added (Raz et al., Acta Trop. 1997, 68: 139-147). Plates were read after 5 to 6 hours at EX/EM 530/585 nm with a filter cutoff at 550 nm. ED50 values were calculated with Msxlfit (IDBS).
as §3

[5] = test system: SKOV-3 (human ovary adenocarcinoma) cells; test: XTT cytotoxicity assay, SKOV-3 cells; type: cell-based; conditions: Homo sapiens, SK-OV-3, second set of experiments, read-out: SKOV-3 % INH [100 μM]
Description: On the first day of the experiment cells were harvested from exponential phase cultures by trypsination, counted and plated into 96 well flat-bottom micro titer plates depending on the cell line as listed below: [table] After a 24 h recovery to allow the cells to resume exponential growth, the test compounds were diluted immediately prior to use and transferred in 25 μl volume to the wells. Following 2 days of continuous drug exposure 50 μl of freshly prepared XTT-PMS solution {2% 0.386 mg/ml PMS (N-Methyl Dibenzopyrazine Methylsulphate; Sigma, Cat. No. […] Serva, Cat. No. 38450) in RPMI 1640 medium without phenol red} was added to the wells. To measure the proportion of living cells, the cells were incubated for 3 h with XTT-PMS reagent at 37° C., 5% CO2, humidified atmosphere allowing to form the formazan salt. […] Inhibition curves were generated and IC50 values calculated by using GraphPad Prism.

[6] = test system: PC3 (human prostate carcinoma) cells; test: XTT cytotoxicity assay, PC3 cells; type: cell-based; conditions: Homo sapiens, PC-3; 31.6 μM, second set of experiments; read-out: PC3 % INH [31.6 μM]
Description: (§4) Cytotoxicity of selected compounds of the invention against different mammalian cell lines was assessed as follows.
(§5) Human tumor cell lines KB/HeLa (ATCC CCL17, human cervix carcinoma), PC3 (ATCC CRL1435, human prostate carcinoma) and RKOp21 (human colon adenocarcinoma; Schmidt et al., Oncogene 2000, 19: 2423-2429) cells were used in an automated XTT screening assay for the assessment of cytotoxicity.
(§6) The XTT assay quantifies cellular metabolic activity which correlates with cell viability and cell number. Test compounds (selected compounds of the invention and known substances as controls) are dissolved in culture medium at 600 μM and added to the tumor cells in 10 different concentrations in a semi-logarithmic fashion starting from 100 μM as highest concentration.
(§7) In a second set of experiments employing PC3, RKOp21 and SKOV-3 (ATCC HTB-77, human ovary adenocarcinoma) cells, test and reference compounds were dissolved in 70% Ethanol/30% H2O in a stock concentration of 10 mM and diluted in cell culture medium to yield either 31.6 μM (PC3 and RKOp21) or 100 μM (SKOV-3) final concentration.
(§8) 48 h later cellular metabolic activity of cells treated with test compounds is quantified by measurement of the absorbance at 490 nm (conversion of XTT dye) in comparison to untreated control cells (100% viability).
(§9) KB/HeLa and PC3 cells were cultivated in RPMI 1640 medium (Gibco, Cat. No. 42401-018) supplemented with 10% heat inactivated fetal calf serum (FCS, Biochrom AG, Cat. No. S0115), 2 mM L-glutamine (Gibco, Cat. No. 25030-24) and 2% Penicillin-Streptomycin (PenStrep, Gibco, Cat. No. 15140-122). RKOp21 cells were grown in DMEM+GlutaMAXTM-I medium (Gibco, Cat. No. 61965-026) supplemented with 10% heat inactivated fetal calf serum (FCS, Biochrom AG, Cat. No. S0115), 2 mM L-glutamine (Gibco, Cat. No. 25030-24), 2% Penicillin-Streptomycin (PenStrep, Gibco, Cat. No. 15140-122) and 1% 1M HEPES (Gibco, Cat. No. 15630-056). All cells were cultured at 37° C. in 5% CO2 humidified air.
(§10) On the first day of the experiment cells were harvested from exponential phase cultures by trypsination, counted and plated into 96 well flat-bottom micro titer plates depending on the cell line as listed below:
(§11) After a 24 h recovery to allow the cells to resume exponential growth, the test compounds were diluted immediately prior to use and transferred in 25 μl volume to the wells.
(§12) Following 2 days of continuous drug exposure 50 μl of freshly prepared XTT-PMS solution {2% 0.386 mg/ml PMS (N-Methyl Dibenzopyrazine Methylsulphate; Sigma, Cat. No. P9625) in PBS+98% 1 mg/ml XTT (Sodium 2,3-bis(2-methoxy-4-nitro-5-sulfophenyl)-5-[(phenylamino)carbonyl]-2H-Tetrazolium; Serva, Cat. No. 38450) in RPMI 1640 medium without phenol red} was added to the wells. To measure the proportion of living cells, the cells were incubated for 3 h with XTT-PMS reagent at 37° C., 5% CO2, humidified atmosphere allowing to form the formazan salt. The amount of soluble formazan salt produced by cellular reduction of XTT is quantified by measuring the absorbance at 490 nm using the Biomek® 2000 ELISA plate reader. %-inhibition (cytotoxicity) of each test compound was calculated in relation to untreated control cells. Inhibition curves were generated and IC50 values calculated by using GraphPad Prism.

[7] = test system: RKOp21 (human colon adenocarcinoma) cells; test: XTT cytotoxicity assay, RKOp21 cells; type: cell-based; conditions: Homo sapiens; 31.6 μM, second set of experiments; read-out: RKOp21 % INH [31.6 μM]
Description: as §4, §5, §6, §7, §8, §9, §10, §11, §12

[8] = test system: Bacteroides fragilis DSM 2151 (ATCC 25285); test: Anti-bacterial bouillon microdilution assay (MIC), bacterium E; type: cell-based; conditions: anaerob, 24 h
Description: (§13) Selected compounds of the invention were tested in a bouillon microdilution assay method according to the DIN 58940 (www.din.de) guidelines for determination of susceptibility of bacterial strains with regard to cell growth inhibition. The assay method quantifies bacterial cell growth which corresponds to the turbidity of the liquid culture medium by photometric measurement carried out at 595 nm.
(§14) The method of MIC determination was performed according to DIN 58940-5. The volumina were adapted according to the microdilution method as described in DIN 58940-7 guideline.
(§15) Dependent on water solubility, compounds of the invention were dissolved either in water or ethanol in a concentration of 10 mg/ml. Subsequently, the stock was further diluted in water to a concentration of 512 μg/ml. The following serial dilutions (factor 2) were performed in water resulting in the following […] testing concentrations: 256 μg/ml, 128 μg/ml, 64 μg/ml, 32 μg/ml, 16 μg/ml, 8 μg/ml, 4 μg/ml, 2 μg/ml, 1 μg/ml, 0.5 μg/ml, 0.25 μg/ml and 0.125 μg/ml. Diluted compounds of the invention were transferred in 100 μl volume to the microtiter plate wells.
(§16) Pre-cultures of bacteria were grown in appropriate liquid media (refer to ATCC webpage, www.atcc.org) and afterwards were inoculated in corresponding liquid medium. 100 μl of the inoculums [adjusted to an amount of app. 1×10^6 microorganisms per ml (range of 10^5-10^8 microorganisms per ml)] were added to each of the testing compound concentrations and cultivated under the appropriate conditions.
(§17) Before and after incubation, bacterial growth was determined by photometric analysis against a positive control containing growing bacteria without compound and a sterile/negative control containing only the medium.

[9] = test system: PC3, RKOp21 and SKOV-3 cell lines; test: XTT cytotoxicity assay, mean over all three cell lines; type: cell-based, human; conditions: mean value over all three cell lines
Description: Following 2 days of continuous drug exposure 50 μl of freshly prepared XTT-PMS solution {2% 0.386 mg/ml PMS (N-Methyl Dibenzopyrazine Methylsulphate; Sigma, Cat. No. […] Serva, Cat. No. 38450) in RPMI 1640 medium without phenol red} was added to the wells. To measure the proportion of living cells, the cells were incubated for 3 h with XTT-PMS reagent at 37° C., 5% CO2, humidified atmosphere allowing to form the formazan salt. […] Inhibition curves were generated and IC50 values calculated by using GraphPad Prism. In the following table 7 cytotoxicity results (% inhibition of cell growth) obtained in the second set of experiments for selected compounds of the invention are presented in comparison to examples of the prior art (perifosine, miltefosine). The results presented are individual values for the respective cell line as well as the mean value over all three cell lines tested.

[10] = test system: Moraxella catarrhalis DMS 11994 (ATCC 43617); test: Anti-bacterial bouillon microdilution assay (MIC), bacterium D; type: cell-based; conditions: ATCC43617, 24 h
Description: as §13, §14, §15, §16, §17

MIC [8] [µg/mL] | MIC [10] [µg/mL] | SMILES | ED50 (μg/mL), protozoon C [1] [µg/mL] | ED50 (μg/mL), protozoon A [2] [µg/mL] | ED50 (μg/mL), protozoon D [3] [µg/mL] | ED50 (μg/mL), protozoon B [4] [µg/mL] | inhibition at 100 µM [5] [%] | inhibition at 31.6 µM [6] [%] | inhibition at 31.6 µM [7] [%] | Mean % INH [9] [%]
– | – | CCCCCCCCCCCCCCCCOP(=O)([O-])OC1CC[N+](C)(CCc2ccccc2)CC1 (stereo not drawn) [Compound 4, Phosphoric acid hexadecyl ester 1-methyl-1-phenethyl-piperidin-4-yl ester] | 5.44 (≈ 10.4 µM) | 1.93 (≈ 3.69 µM) | 15.32 (≈ 29.3 µM) | 12.29 (≈ 23.5 µM) | – | – | – | –
128 (≈ 295 µM) | – | CCCCCCCCCCCCCCCCOP(=O)([O-])OCC[N+]1(C)CCCC1 [Compound 90] | – | – | – | – | 54.6 | 55.5 | 51.9 | 54.0
128 (≈ 247 µM) | 8 (≈ 15.5 µM) | CCCCCCCCCCCCCCCCOP(=O)([O-])OCC[N+]1(C)C=CC(C(=O)OCC)CC1 (stereo not drawn) [Compound 266] | – | – | – | – | 8.5 | 25.8 | 6.6 | 13.6
